Experimental data published in ChEMBL document CHEMBL3244164, “Synthesis and analgesic activity of 1,3-dihydro-3-(substituted phenyl)imidazo[4,5-b]pyridin-2-ones and 3-(substituted phenyl)-1,2,3-triazolo[4,5-b]pyridines” (J Med Chem, 1978).
Active and inactive are the calls of the source.

How the values were obtained:
Rattus norvegicus [1] = assay: Analgesic activity in Sprague-Dawley rat normal foot assessed as response threshold at 16 to 32 mg/kg, po; format: functional; details: dose mg/kg 16-32
Rattus norvegicus [2] = assay: Analgesic activity in Sprague-Dawley rat brewer's yeast treated foot assessed as response threshold at 16 to 32 mg/kg, po; format: functional; details: dose mg/kg 16-32
Rattus norvegicus [3] = assay: Analgesic activity in Sprague-Dawley rat normal foot assessed as response threshold at 32 mg/kg, po; format: functional
Rattus norvegicus [4] = assay: Analgesic activity in Sprague-Dawley rat assessed as increase in mean reaction time at 10 mg/kg, po after 1 hr relative to control; format: functional
Rattus norvegicus [5] = assay: Analgesic activity in Sprague-Dawley rat normal foot assessed as response threshold at 8 to 16 mg/kg, po; format: functional; details: dose mg/kg 8-16
Rattus norvegicus [6] = assay: Analgesic activity in Sprague-Dawley rat assessed as increase in mean reaction time at 20 mg/kg, po after 1 hr relative to control; format: functional
Rattus norvegicus [7] = assay: Analgesic activity in Sprague-Dawley rat assessed as increase in mean reaction time at 5 mg/kg, po after 2 hrs relative to control; format: functional
Mus musculus [8] = assay: Analgesic activity in mouse assessed as withdrawal latency at 12.5 to 75 mg/kg, po by Haffner tail clamp method; format: functional, organism-based
Rattus norvegicus [9] = assay: Analgesic activity in Sprague-Dawley rat assessed as increase in mean reaction time at 5 mg/kg, po after 3 hrs relative to control; format: functional
Mus musculus [10] = assay: Analgesic activity in naloxone treated mouse assessed as withdrawal latency at 12.5 to 75 mg/kg, po; format: functional, organism-based
Rattus norvegicus [11] = assay: Analgesic activity in Sprague-Dawley rat assessed as increase in mean reaction time at 10 mg/kg, po after 5 hrs relative to control; format: functional
Rattus norvegicus [12] = assay: Analgesic activity in Sprague-Dawley rat assessed as increase in mean reaction time at 20 mg/kg, po after 2 hrs relative to control; format: functional
Rattus norvegicus [13] = assay: Analgesic activity in Sprague-Dawley rat assessed as increase in mean reaction time at 10 mg/kg, po after 4 hrs relative to control; format: functional
Rattus norvegicus [14] = assay: Analgesic activity in Sprague-Dawley rat assessed as increase in mean reaction time at 20 mg/kg, po after 4 hrs relative to control; format: functional
Rattus norvegicus [15] = assay: Analgesic activity in Sprague-Dawley rat assessed as increase in mean reaction time at 5 mg/kg, po after 4 hrs relative to control; format: functional
Rattus norvegicus [16] = assay: Antiarthritic activity in Lewis rat assessed as inhibition of adjuvant-induced paw swelling at 50 mg/kg, po qd for 13 days measured on day 14; format: functional
Rattus norvegicus [17] = assay: Analgesic activity in Sprague-Dawley rat assessed as increase in mean reaction time at 20 mg/kg, po after 3 hrs relative to control; format: functional
Rattus norvegicus [18] = assay: Analgesic activity in Sprague-Dawley rat assessed as increase in mean reaction time at 10 mg/kg, po after 2 hrs relative to control; format: functional
Rattus norvegicus [19] = assay: Analgesic activity in Sprague-Dawley rat assessed as increase in mean reaction time at 5 mg/kg, po after 5 hrs relative to control; format: functional
Rattus norvegicus [20] = assay: Analgesic activity in Sprague-Dawley rat assessed as increase in mean reaction time at 10 mg/kg, po after 3 hrs relative to control; format: functional
Rattus norvegicus [21] = assay: Analgesic activity in Sprague-Dawley rat brewer's yeast treated foot assessed as response threshold at 8 mg/kg, po; format: functional
Rattus norvegicus [22] = assay: Antiinflammatory activity in Sprague-Dawley rat assessed as inhibition of carrageenan-induced paw edema at 30 mg/kg, po; format: functional
Rattus norvegicus [23] = assay: Analgesic activity in Sprague-Dawley rat assessed as increase in mean reaction time at 20 mg/kg, po after 5 hrs relative to control; format: functional
Rattus norvegicus [24] = assay: Analgesic activity in Sprague-Dawley rat assessed as increase in mean reaction time at 5 mg/kg, po after 1 hr relative to control; format: functional
Rattus norvegicus [25] = assay: Analgesic activity in Sprague-Dawley rat brewer's yeast treated foot assessed as response threshold at 8 to 16 mg/kg, po; format: functional; details: dose mg/kg 8-16
Rattus norvegicus [26] = assay: Analgesic activity in Sprague-Dawley rat brewer's yeast treated foot assessed as response threshold at 32 mg/kg, po; format: functional

Cc1ccc(-n2c(=O)[nH]c3cccnc32)cc1
Activity (Rattus norvegicus [1]): >40 mm
Activity (Rattus norvegicus [2]): >25 mm

c1cnc2c(c1)nnn2-c1ccc2c(c1)OCCO2
Activity (Rattus norvegicus [3]): <40 mm
Activity (Rattus norvegicus [2]): >25 mm

O=c1[nH]c2cccnc2n1-c1ccc2c(c1)OCO2
Time (Rattus norvegicus [4]): 2 s
Activity (Rattus norvegicus [5]): >50 mm
Time (Rattus norvegicus [6]): 6 s
Time (Rattus norvegicus [7]): 2.1 s
Activity (Mus musculus [8]): Active
Time (Rattus norvegicus [9]): -0.1 s
Activity (Mus musculus [10]): inactive
Time (Rattus norvegicus [11]): -0.2 s
Time (Rattus norvegicus [12]): 15 s
Time (Rattus norvegicus [13]): 2.3 s
Time (Rattus norvegicus [14]): 20 s
Time (Rattus norvegicus [15]): 1.3 s
inhibition in vivo at 50 mg/kg (Rattus norvegicus [16]): 68.3%
Time (Rattus norvegicus [17]): 20.4 s
Time (Rattus norvegicus [18]): 3.9 s
Time (Rattus norvegicus [19]): 0.4 s
Time (Rattus norvegicus [20]): 2.8 s
Activity (Rattus norvegicus [21]): >34 mm
inhibition in vivo at 30 mg/kg (Rattus norvegicus [22]): 37%
Time (Rattus norvegicus [23]): 18.3 s
Time (Rattus norvegicus [24]): 1.5 s

COc1ccc2c3c1O[C@H]1[C@@H](O)C=C[C@H]4[C@@H](C2)N(C)CC[C@@]341 [CODEINE]
Activity (Rattus norvegicus [1]): >40 mm
Activity (Rattus norvegicus [25]): >25 mm

CCn1c(=O)n(-c2ccc3c(c2)OCO3)c2ncccc21
Activity (Rattus norvegicus [3]): <40 mm
Activity (Rattus norvegicus [2]): >25 mm

O=c1n(CO)c2cccnc2n1-c1ccc2c(c1)OCO2
Activity (Rattus norvegicus [3]): 40 mm
Activity (Rattus norvegicus [2]): >25 mm

CC(C)n1c(=O)n(-c2ccc3c(c2)OCO3)c2ncccc21
Activity (Rattus norvegicus [5]): >50 mm
Activity (Rattus norvegicus [21]): >34 mm

C=CCn1c(=O)n(-c2ccc3c(c2)OCO3)c2ncccc21
Activity (Mus musculus [8]): Active
Activity (Mus musculus [10]): inactive

O=c1[nH]c2cccnc2n1-c1ccccc1Cl
Activity (Rattus norvegicus [3]): <40 mm
Activity (Rattus norvegicus [2]): >25 mm

CCCCC1C(=O)N(c2ccccc2)N(c2ccccc2)C1=O [PHENYLBUTAZONE]
inhibition in vivo at 50 mg/kg (Rattus norvegicus [16]): 78%
inhibition in vivo at 30 mg/kg (Rattus norvegicus [22]): 39%

Nc1ccc(-n2c(=O)[nH]c3cccnc32)cc1
Activity (Rattus norvegicus [3]): <40 mm
Activity (Rattus norvegicus [2]): >25 mm

CC(C)c1ccccc1-n1c(=O)[nH]c2cccnc21
Activity (Rattus norvegicus [3]): <40 mm
Activity (Rattus norvegicus [26]): <25 mm

CC(=O)c1ccc(-n2nnc3cccnc32)cc1
Activity (Rattus norvegicus [3]): <40 mm
Activity (Rattus norvegicus [26]): <25 mm

CC(C)(C)n1c(=O)n(-c2ccc3c(c2)OCO3)c2ncccc21
Activity (Rattus norvegicus [1]): >40 mm
Activity (Rattus norvegicus [2]): >25 mm

CN1CC[C@]23c4c5ccc(O)c4O[C@H]2[C@@H](O)C=C[C@H]3[C@H]1C5 [MORPHINE]
Activity (Rattus norvegicus [5]): >50 mm
Activity (Rattus norvegicus [3]): <40 mm
Activity (Rattus norvegicus [21]): >34 mm

c1cnc2c(c1)nnn2-c1ccc2c(c1)OCO2
Activity (Rattus norvegicus [3]): 40 mm
Activity (Rattus norvegicus [26]): 25 mm

COc1cccc(-n2nnc3cccnc32)c1
Activity (Rattus norvegicus [3]): <40 mm
Activity (Rattus norvegicus [26]): <25 mm
